# Experimental data: the supplement of paper PMC4862054
# Columns and labels:
# Assay in all cases: normalised response (% of control), CellTiter-Glo; higher = more viable cells (100 = DMSO, 0 = benzethonium chloride kill control)
# Details in all cases: incubation time: 72 h
# BT-474 = system: BT-474
# In short: (§1)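 A 20 µl suspension of breast cancer cells was seeded into each well of 384-well plates containing compound at 5 concentrations in 10-fold steps over a compound-specific 10,000-fold range. After 72 h incubation, CellTox Green fluorescence (485/520 nm) was read first, and CellTiter-Glo luminescence was read after 10 min at room temperature. Each plate was normalised against 0.1 % DMSO (100) and a positive kill control (0), and each value is the normalised signal at one concentration.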
# BT-549 = system: BT-549
# In short: as §1
# CAL-120 = system: CAL-120
# In short: as §1
# CAL-148 = system: CAL-148
# In short: as §1
# CAL-51 = system: CAL-51
# In short: as §1
# CAL-85-1 = system: CAL-85-1
# In short: as §1
# DU-4475 = system: DU-4475
# In short: as §1
# HCC1143 = system: HCC1143
# In short: as §1
# HCC1599 = system: HCC1599
# In short: as §1
# HCC1937 = system: HCC1937
# In short: as §1
# HDQ-P1 = system: HDQ-P1
# In short: as §1
# Hs578T = system: Hs578T
# In short: as §1
# MCF-10A = system: MCF-10A
# In short: as §1
# MDA-MB-231 = system: MDA-MB-231
# In short: as §1
# MDA-MB-436 = system: MDA-MB-436
# In short: as §1
# MDA-MB-453 = system: MDA-MB-453
# In short: as §1
# MDA-MB-468 = system: MDA-MB-468
# In short: as §1
# MFM-223 = system: MFM-223
# In short: as §1
# SK-BR-3 = system: SK-BR-3
# In short: as §1
SMILES,normalised response (BT-474) [%],normalised response (BT-549) [%],normalised response (CAL-120) [%],normalised response (CAL-148) [%],normalised response (CAL-51) [%],normalised response (CAL-85-1) [%],normalised response (DU-4475) [%],normalised response (HCC1143) [%],normalised response (HCC1599) [%],normalised response (HCC1937) [%],normalised response (HDQ-P1) [%],normalised response (Hs578T) [%],normalised response (MCF-10A) [%],normalised response (MDA-MB-231) [%],normalised response (MDA-MB-436) [%],normalised response (MDA-MB-453) [%],normalised response (MDA-MB-468) [%],normalised response (MFM-223) [%],normalised response (SK-BR-3) [%]
O=c1[nH]c(=O)n([C@H]2C[C@H](O)[C@@H](CO)O2)cc1F [Floxuridine] (10 nM),102,100,99.5,110,122,104,98.1,109,93.1,98.2,90.2,92.3,105,105,92.5,111,96.7,111,
CC(C)(C)c1cc(NC(=O)Nc2ccc(-c3cn4c(n3)sc3cc(OCCN5CCOCC5)ccc34)cc2)no1 [Quizartinib] (1 nM),118,98.8,111,109,112,106,104,110,116,101,98.5,97.2,110,106,104,104,104,111,56.6
COC(=O)C[C@](O)(CCCC(C)(C)O)C(=O)O[C@@H]1C(OC)=C[C@]23CCCN2CCc2cc4c(cc2[C@H]13)OCO4 [Omacetaxine] (10 nM),103,104,103,115,94,98.6,75.5,109,92.5,100,96.1,108,123,105,88.7,109,101,106,110
COc1c(C)cnc(Cn2cnc3c(Cl)nc(N)nc32)c1C [BIIB021] (10 nM),101,99.6,99,94.6,116,96.9,102,108,109,105,97.5,97.6,96.6,99.3,101,102,102,102,
COc1cccc2c1C(=O)c1c(O)c3c(c(O)c1C2=O)C[C@@](O)(C(C)=O)C[C@@H]3O[C@H]1C[C@H](N)[C@H](O)[C@H](C)O1 [Daunorubicin] (1 nM),106,94.2,96.9,109,122,96.2,107,109,109,99.9,104,112,107,105,101,108,105,108,
CC(C)C[C@H](NC(=O)[C@H](Cc1ccccc1)NC(=O)c1cnccn1)B(O)O [Bortezomib] (1 nM),99.2,98.2,102,102,77.6,98.8,101,94.2,108,98.8,101,109,102,104,90.8,97,95,103,
O=c1[nH]cc(F)c(=O)[nH]1 [Fluorouracil] (10 nM),103,107,95.1,112,104,96.1,110,121,99.3,106,102,110,111,107,99.1,101,105,113,
FC(F)c1nc2ccccc2n1-c1nc(N2CCOCC2)nc(N2CCOCC2)n1 [ZSTK474] (10 nM),98.2,95.4,96.9,99.7,75.5,92.5,101,97.6,105,99.8,95,101,103,89.9,91.3,101,100,100,
C#Cc1cccc(Nc2ncnc3cc(OC)c(OCCCCCCC(=O)NO)cc23)c1 [CUDC-101] (10 nM),98,101,99.8,87.5,84.9,92.6,99,99.9,93.9,104,95.8,96.4,97.5,98.1,105,103,101,100,
CN1CCN(c2ccc3nc(-c4c(N)c5c(F)cccc5[nH]c4=O)[nH]c3c2)CC1 [Dovitinib] (10 nM),102,91.8,95.6,94.9,77.6,91.5,97.8,102,102,101,96.1,97.6,98.3,98.6,98.1,88.4,97,95.1,
Nc1nccc(-c2c(-c3ccc(F)cc3)ncn2C2CCCCC2)n1 (10 nM),106,90.7,102,116,104,106,107,110,86.8,100,102,107,111,100,95.7,106,96,110,
